Test results from the NIST ThermoML archive (doi:10.1021/je5001457).
± gives the expanded uncertainty stated by the source.

Details: for kinematic viscosity: Liquid

FCC(F)(F)F [1,1,1,2-tetrafluoroethane]
surface light scattering
Details | kinematic viscosity [m2/s] | surface tension liquid-gas [mN/m]
302.99 K | 1.55e-07 ± 6.2e-09 | 7.45 ± 0.23
312.86 K | 1.41e-07 ± 5.6e-09 | 6.19 ± 0.19
322.92 K | 1.28e-07 ± 5.1e-09 | 4.95 ± 0.15
332.92 K | 1.17e-07 ± 4.7e-09 | 3.79 ± 0.12
342.9 K | 1.07e-07 ± 4.3e-09 | 2.68 ± 0.08
352.89 K | 9.79e-08 ± 3.9e-09 | 1.65 ± 0.05
363.27 K | 8.56e-08 ± 3.4e-09 | 0.73 ± 0.03
368.26 K | 7.9e-08 ± 3.2e-09 | 0.34 ± 0.02

C=C(F)C(F)(F)F [2,3,3,3-tetrafluoro-1-propene]
light scattering
Details | kinematic viscosity [m2/s] | surface tension liquid-gas [mN/m]
293.15 K | 1.44e-07 ± 5.8e-09 | 6.82 ± 0.21
303.09 K | 1.32e-07 ± 5.3e-09 | 5.71 ± 0.17
313.2 K | 1.22e-07 ± 4.9e-09 | 4.6 ± 0.14
323.19 K | 1.13e-07 ± 4.5e-09 | 3.55 ± 0.11
333.14 K | 1.02e-07 ± 4.1e-09 | 2.55 ± 0.08
343.11 K | 8.99e-08 ± 3.6e-09 | 1.64 ± 0.05
353.08 K | 8.2e-08 ± 3.3e-09 | 0.81 ± 0.03
358.05 K | 7.7e-08 ± 3.1e-09 | 0.46 ± 0.02
363.05 K | 7e-08 ± 2.8e-09 | 0.15 ± 0.01
365.05 K | 6.24e-08 ± 2.6e-09 | –

F/C=C/C(F)(F)F [trans-1,3,3,3-tetrafluoropropene]
surface light scattering
Details | kinematic viscosity [m2/s] | surface tension liquid-gas [mN/m]
295.23 K | 1.78e-07 ± 7.1e-09 | 8.88 ± 0.27
303.19 K | 1.61e-07 ± 6.4e-09 | 7.91 ± 0.24
313.21 K | 1.43e-07 ± 5.7e-09 | 6.66 ± 0.2
323.19 K | 1.32e-07 ± 5.3e-09 | 5.48 ± 0.17
333 K | 1.19e-07 ± 4.8e-09 | 4.36 ± 0.13
343.05 K | 1.13e-07 ± 4.5e-09 | 3.3 ± 0.1
353 K | 1.05e-07 ± 4.2e-09 | 2.26 ± 0.07
363.12 K | 9.24e-08 ± 3.7e-09 | 1.35 ± 0.04
373.14 K | 8.17e-08 ± 3.3e-09 | 0.54 ± 0.02
